Measurements: patent US7033829B2, “Method to inhibit cell growth using oligonucleotides” (Trustees of Boston University, priority 2000, dated 2006)
Oligonucleotides are written 5' to 3', each unit as a sugar letter and its base; * is a phosphorothioate linkage, no mark a phosphodiester; rarer units and linkages stand in square brackets, end groups in braces. Plain capitals give the bases only. d = 2'-deoxy (DNA); {P} = phosphate

Key:
human melanocytes = assay: Melanogenesis in human melanocytes; assay type: cell-based; settings: after one week in culture
[1] = system: p53-null osteosarcoma cell line (Saos-2); assay: FACS cell cycle analysis of Saos-2 cells; assay type: cell-based, human; settings: 40 μM; 48 hours
Text: In order to determine whether these oligonucleotides similarly affect other human cell types and to investigate the role of p53, we treated a squamous cell carcinoma line (SCC12F) (Rheinwald, J. G., et al., 1983, Human carcinogenesis. pp. 86–96. Academic Press (New York)) that over-expresses a presumptively mutated p53 (Eller, M. S. and B. A. Gilchrest. 2000, Pigment Cell Res. 13: 94–97) and a p53-null osteosarcoma cell line (Saos-2) (Wang, L. H., et al., 1998, Anticancer Res 18: 321–325) with either diluent alone, 11mer-1, 11mer-2 or 11mer-3. Cultures were analyzed by FACS after 48 hours (FIGS. 33A–33H). […] Although the percentage of cells in the S-phase in 11mer-1-treated SCC12F and Saos-2 cells was virtually identical (53±6% and 52±1%, respectively), the G0/G1 and G2/M content of the two cell types were somewhat different. This may reflect differential uptake of the oligonucleotide leading to dose-dependent differences, and/or different pathways acting in these cells to control the cell cycle. No apoptotic response to the oligonucleotides was detected in either cell type within 72 hours.

TNF-α gene = assay: TNFα promoter CAT reporter transgene in skin; assay type: in vivo, mice; settings: intracutaneous pTpT 100 μM; LPS 1 μg/ml
Description: In another experiment, TNF-α gene activation was measured by utilizing mice carrying a CAT reporter transgene bearing the entire TNFα promoter and 3′-untranslated region. Transgenic mice were subjected to the following treatment prior to skin assay for CAT expression: UVB irradiation (200–700 J/m^2), intracutaneous injection of pTpT (100 μM); lipopolysaccharide (LPS 1 μg/ml) as positive control, or vehicle alone.

[2] = system: basal keratinocytes (epidermal cell proliferation); assay: Epidermal labeling index after topical application; assay type: in vivo, Guinea pigs; settings: 100 μM topical, three days, mean ± SD
Description: Guinea pigs received one or two daily topical applications of 100 μM pTpT, or vehicle alone as control, for three days. On the fourth day, punch biopsies were obtained and maintained for 7 or 8 hours in primary keratinocyte medium supplemented with 10 μCi/ml ^3H-thymidine (specific activity 9.0 Ci/m mole, NEN). Proliferating cells are expected to incorporate the ^3H-thymidine into newly synthesized DNA. Tissues were then rinsed with cold medium and fixed in 10% phosphate buffered formalin. After a series of dehydration steps, tissues were embedded in paraffin. 6 μm sections were cut and mounted onto glass slides, dipped in NTB-2 Nuclear Track emulsion and kept in the dark at 4° C. for 7 days. Sections were developed in Kodak D-19 developer and stained with hematoxylin and eosin. Labeling index, a measure of DNA replication and therefore cell proliferation, was measured by calculating the percentage of labeled nuclei among 100 basal keratinocytes.

SDI 1 mRNA = SDI 1 mRNA in H1299 cells with or without p53 expression vector; assay type: cell-based, human; settings: 100 μM, 24 hours
Description: Preconfluent cultures of H1299 cells were transfected with an expression vector containing the wild type human p53 cDNA under the control of the human cytomegalovirus promoter/enhancer (Dr. Bert Vogelstein, Johns Hopkins Oncology Center). Control transfections were performed using the vector from which the p53 cDNA was removed. Transfections were carried out using the Lipofectin Reagent Kit (GIBCO/BRL). One day after transfection, cells were collected for Western blot analysis using 20 μg total protein as described (Yaar, M. et al., J. Clin. Invest. 94:1550–1562 (1994)). p53 was detected using mAb 421, anti-mouse Ig linked to horseradish peroxidase (Amersham, Arlington Heights, Ill.) and an ECL-kit (Amersham), following the directions of the manufacturer. At the time of protein collection, duplicate cultures of H1299 cells transfected with the p53 expression vector (designated “p53”) or control vector (“Ctrl”) were given either diluent (DMEM) or 100 μM pTpT. After 24 hours, the cells were collected, processed for RNA isolation and Northern blot analysis with an SDI 1 cDNA probe. The autoradiograph was scanned using a Macintosh IIsi computer and Macintosh One Scanner, and the brightness and contrast were adjusted to display differences in autoradiographic signals maximally. […]

[3] = system: UV-damaged CAT reporter plasmid in human fibroblasts; assay: Repair of UV-damaged CAT reporter plasmid in fibroblasts; assay type: cell-based; settings: 100 μM for five days before transfection; plasmid 100 mJ/cm^2 UVB
Text: Expression of a UV-damaged reporter plasmid containing the bacterial chloramphenicol acetyltransferase (CAT) gene under the control of SV40 promoter and enhancer sequences was previously shown to detect decreased DNA repair capacity in human lymphocytes associated with aging and early-onset skin cancers. This reporter plasmid was used to measure the DNA repair capacity of normal neonatal human skin-derived fibroblasts and keratinocytes.
Keratinocytes from newborns were established as described (Stanulis-Praeger, B. M. and Gilchrest, B. A., J. Cell. Physiol. 139:116–124 (1989)) using a modification of the method of Rheinwald and Green (Gilchrest, B. A. et al., J. Invest. Dermatol. 101:666–672 (1993)). First-passage keratinocytes were maintained in a non-differentiating low Ca^2+ medium (K-Stim, Collaborative Biomedical Products, Bedford, Mass.). […] CAT enzyme activity was determined using the liquid scintillation counting protocol and components of the assay system kit. […] Protein concentration in the cell extracts was determined by the method of Bradford (Anal. Biochem. 72:248 […]). CAT activity was expressed as c.p.m./100 μg protein and is represented as percent activity of cells transfected with sham-irradiated, non-damaged, plasmid.

## pGAGTATGAG (DNA, 5' {P}, backbone not given here) [SEQ ID NO: 1]
Human melanocytes
  increase in melanogenesis: 51–62%

## pGTTAGGGTTAG (DNA {P}-dGdTdTdAdGdGdGdTdTdAdG) [SEQ ID NO: 5]
[1]
  cells in the S-phase: 52±1%

## thymidine dinucleotide [pTpT]
TNF-α gene
  CAT activity in skin: CAT activity was detected
[2]; 1 daily application
  Labeling Index (percentage of labeled nuclei among 100 basal keratinocytes): 2 ± 0
[2]; 2 daily applications
  Labeling Index (percentage of labeled nuclei among 100 basal keratinocytes): 1.5 ± 0.7
SDI 1 mRNA; H1299 transfected with wild-type p53 expression vector
  level of SDI 1 transcript: inducible by addition of pTpT
SDI 1 mRNA; p53-null H1299 cells
  level of SDI 1 transcript: not affected by addition of pTpT
[3]
  CAT activity relative to sham-irradiated transfected controls: more than 50%
